These results are taken from patent US4820828A, “Cinnamohydroxamic acids” (Ortho Pharmaceutical Corporation, priority 1987, dated 1989).

Read-outs that look alike come from different tables or passages of the source.

The target of experiment [1] is T1, 5-lipoxygenase (Rattus norvegicus, UniProt P12527).
T1 construct: The cell-free homogenate was prepared by sonication of the cells followed by centrifugation at 40,000 xg; endogenous in cells; host or cells: RBL-1 (rat basophilic leukemia) cells, 40,000 xg supernatant of the sonicated homogenate
T1 sequence (P12527 1-673): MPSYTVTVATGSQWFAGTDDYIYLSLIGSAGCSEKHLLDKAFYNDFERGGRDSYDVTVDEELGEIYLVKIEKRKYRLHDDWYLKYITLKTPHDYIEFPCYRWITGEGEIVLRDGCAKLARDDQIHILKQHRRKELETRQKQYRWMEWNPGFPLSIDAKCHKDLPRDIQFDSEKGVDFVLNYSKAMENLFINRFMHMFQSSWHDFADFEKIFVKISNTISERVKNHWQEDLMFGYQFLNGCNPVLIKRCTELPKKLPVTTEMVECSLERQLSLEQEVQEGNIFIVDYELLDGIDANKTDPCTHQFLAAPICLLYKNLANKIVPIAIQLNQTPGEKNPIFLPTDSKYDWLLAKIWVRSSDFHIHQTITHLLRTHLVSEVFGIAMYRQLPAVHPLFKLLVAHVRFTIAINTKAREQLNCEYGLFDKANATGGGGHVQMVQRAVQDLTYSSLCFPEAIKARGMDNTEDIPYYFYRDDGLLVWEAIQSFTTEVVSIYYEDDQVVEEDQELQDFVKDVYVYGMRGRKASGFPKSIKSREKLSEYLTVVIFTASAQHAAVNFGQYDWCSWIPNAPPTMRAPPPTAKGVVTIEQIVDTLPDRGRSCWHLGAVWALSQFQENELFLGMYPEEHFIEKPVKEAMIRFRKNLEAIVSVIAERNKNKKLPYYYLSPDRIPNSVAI
Description: Inhibition of 5-lipoxygenase in a cell-free homogenate of RBL-1 cells (production of lipoxygenase products from 14C-arachidonic acid). It is filed as biochemical. Particulars: rat RBL-1 40,000 xg supernatant; for IC50: 50% inhibition of lipoxygenase product generation. The procedure: The inhibition of 5-lipoxygenase was tested in a cell-free homogenate by the procedure of Jakschik, B. et al., Biochem.Biophys.Res.Comm. 95, 103 (1980). Basically, rat basophilic leukemia cells (RBL-1 cells) were maintained in culture in a suitable medium, and were collected by centrifugation prior to assay. The cell-free homogenate was prepared by sonication of the cells followed by centrifugation at 40,000 xg. The CaCl2 dependent production of lipoxygenase products from ^14 C-arachidonic acid in the 40,000 xg supernatant was monitored in the presence of buffer (or other vehicle) or drug. Products were isolated by acidification and extraction, followed by thin layer chromatography. Radioactive areas corresponding to authentic lipoxygenase products were quantitated by liquid scintillation counting. Data was reported as the IC50, the concentration causing 50% inhibition of the generation of lipoxygenase products. The results are shown in Table II as the percent inhibition at 3 μM or the amount of compound necessary to cause 50% inhibition.

Experiment [2] has as its system Arachidonate Induced Bronchospasm. Description: Pulmonary mechanics assay: inhibition of arachidonate induced bronchospasm in anesthetized guinea pigs. It is filed as in vivo, guinea pig (male Hartley). Conditions: Cavia porcellus, guinea pig, % inhibition of control; for inhibition in vivo at 25 mg/kg: dose 25 mg/kg ID; for inhibition in vivo at 15 mg/kg: dose 15 mg/kg IV. As for the experimental part: The bronchodilating activity of the compounds was tested in a pulmonary mechanics assay. Basically, male Hartley guinea pigs (~400-500 g) were anesthetized with urethane (2 g/kg, i.p.) and placed in a whole body plethysmograph. Cannulations of a jugular vein and carotid artery were performed for compound administration and monitoring blood presure, respectively. The trachea was cannulated for respiration at a constant volume via a miniature starling pump. A Validyne differential pressure transducer (±20 cm H2 O) sensed transpleural pressure via a 15 gauge needle inserted into the pleural cavity and a sidearm from the tracheal cannula. Tidal volume was sensed by another Validyne differential pressure transducer (±2 cm H2 O) from pressure changes inside the plethysmograph. An on-line Buxco pulmonary mechanics computer calculated air flow, dynamic lung compliance and lung resistance. The values were recorded on a print-out.
The guinea pigs were pretreated with succinyl choline (1.2 mg/kg, i.v.) to arrest spontaneous respiration. A control challenge of arachidonic acid (0.5-1.0 mg/kg, i.v.) was administered, and the animals were then dosed with the test compound by various routes. At least 10 minutes were allowed to expire between arachidonic acid challenges. A second challenge was given and compared to the control response. This comparison was indicative of cyclooxygenase inhibition. Indomethacin (10 mg/kg, i.v.) was administered immediately after the second challenge. A third challenge of a higher dose of arachidonic acid (5-10 mg/kg, i.v.) was given. This response was induced by SRS-A and compared to the responses elicited by a separate control group of animals. Activity was indicative of lipoxygenase inhibition. Propranolol (0.005 mg/kg, i.v.) may be given prior to the third challenge to enhance the response to SRS-A.
Bronchoconstriction induced by arachidonic acid with or without indomethacin was expressed as maximum percent change in dynamic lung compliance (Cdyn) and maximum percent increase in lung resistance (RL). Each guinea pig served as its own control for cyclooxygenase evaluation, while a treated group was compared to a control group for lipoxygenase evaluation. The results are shown in Table II and are expressed as the percent inhibition of control.

The mark [3] stands for this setting: without indomethacin, read-out: Bronchodilating Activity, % Inhibition of Arachidonate Induced Bronchospasm, without Indomethacin.
Setting [4] is: with indomethacin (10 mg/kg, i.v.), read-out: Bronchodilating Activity, % Inhibition of Arachidonate Induced Bronchospasm, with Indomethacin.

On to `COc1ccc(/C=C/C(=O)N(C)O)c(OC)c1` [Example 20, 2,4-Dimethoxy-N--methylcinnamohydroxamic acid], for which, in experiment [1], the inhibition at 3 µM came out at 100% and the IC50 worked out at 430 nM. Further, in experiment [2] (iv, with indomethacin (10 mg/kg, i.v.), read-out: Bronchodilating Activity, % Inhibition of Arachidonate Induced Bronchospasm, with Indomethacin), the inhibition in vivo at 25 mg/kg was 46%. For the same compound, the inhibition in vivo at 25 mg/kg in experiment [2] (setting [3]) was 46%.
Regarding `CN(O)C(=O)/C=C/c1ccc2c(c1)OCO2` [Example 12, 3,4-Methylenedioxy-N--methylcinnamohydroxamic acid], at 3 µM the inhibition in experiment [1] was 53%. Besides, the inhibition in vivo at 15 mg/kg in experiment [2] (setting [4]) was 58%; in experiment [2] (setting [3]), 15%.
For `CN(O)C(=O)/C=C/c1cc(C(C)(C)C)c(O)c(C(C)(C)C)c1` [Example 27, 3,5-Di-t-butyl-4-hydroxy-N--methyl-cinnamo-hydroxamic acid], in that order: 65%, 89% and 56%.
As for `COc1cc(/C=C/C(=O)N(C)O)cc(OC)c1` [Example 18, 3,5-Dimethoxy-N--methylcinnamohydroxamic acid], the inhibition at 3 µM in experiment [1] came to 100%. The inhibition in vivo at 15 mg/kg in experiment [2] (setting [4]) is 78%; in experiment [2] (setting [3]), 48%.
For `COc1cccc(/C=C/C(=O)N(C)O)c1OC` [Example 19, 2,3-Dimethoxy-N--methylcinnamohydroxamic acid], in that order: 44%, 70% and 34%.
On the same counts, the results for `COc1cc(/C=C/C(=O)N(C)O)cc(OC)c1OC` [Example 3, 3,4,5-Trimethoxy-N-methycinnamohydroxamic acid] are 91%, 89% and 0%.
In experiment [1], `COc1ccc(/C=C/C(=O)N(C)O)cc1OC` [Example 4, 3,4-Dimethoxy-N-methylcinnamohydroxamic acid] had an inhibition at 3 µM of 89% and a half-inhibitory concentration (IC50) of 600 nM. The inhibition in vivo at 15 mg/kg in experiment [2] (setting [4]) was 90%. For the same compound, the inhibition in vivo at 15 mg/kg in experiment [2] (setting [3]) was 82%.
In turn, `COc1cccc(OC)c1/C=C/C(=O)N(C)O` [Example 22, 2,6-Dimethoxy-N--methylcinnamohydroxamic acid] gave an inhibition at 3 µM in experiment [1] of 41%.
The same measure, in the same setting: to `CN(O)C(=O)/C=C/c1ccc(F)cc1` [Example 1, 4-Fluoro-N-methylcinnamohydroxamic acid] belongs 30%.
The same measure, in the same setting: to `CN(O)C(=O)/C=C/c1ccc(Cl)cc1Cl` [Example 14, 2,4-Dichloro-N--methylcinnamohydroxamic acid] belongs 88%.
`CN(O)C(=O)/C=C/c1ccc(Cl)cc1` [Example 26, 4-Chloro-N--methylcinnamohydroxamic acid]: the inhibition in vivo at 15 mg/kg in experiment [2] (setting [4]) is 70%; in experiment [2] (setting [3]), 87%.
`CN(O)C(=O)/C=C/c1ccc(Cl)c(O)c1` [Example 5, 4-Chloro-3-hydroxy-N-methylcinnamohydroxamic acid]: the inhibition at 3 µM in experiment [1] was 35%.
The same measure, in the same setting: to `CN(O)C(=O)/C=C/c1ccc(Cl)c([N+](=O)[O-])c1` [Example 23, 4-Chloro-3-nitro-N--methylcinnamohydroxamic acid] belongs 30%; to `CN(O)C(=O)/C=C/c1ccc2c(c1)OCCO2` [Example 13, 3,4-(1,2-Ethylenedioxy)-N--methylcinnamohydroxamic acid], 53%.
Same read-out and setting: in the case of `CN(O)C(=O)/C=C/c1c(Cl)cccc1Cl` [Example 15, 2,6-Dichloro-N--methylcinnamohydroxamic acid] it was 24%; in that of `COc1cc(/C=C/C(=O)N(C)O)cc(OC)c1O` [Example 10, 3,5-Dimethoxy-4-hydroxy-N--methylcinnamohydroxamic acid], 17%.

Usually inhibition stands for the change of the read-out against control, counted positive when it falls. A high value points to a response far below the control. The term IC50 denotes the concentration that gives 50% inhibition.
